Source: patent publication EP2012792B1, “USE OF A COMPOUND INDUCING AN INCREASE OF FREE SEROTONIN RATE IN THE BODY, FOR PREPARING A MEDICINE FOR TREATING SKELETAL MUSCLE DEGENERATION OF GENETIC ORIGIN” (Association Française contre les Myopathies, priority 2006, dated 2007)
Where a name gives a salt, the structure may show the parent alone.

Assays:
[1] = test system: souris mdx (génotype C57/BL6 mdx5cv); assay: mdx mouse: number of centronucleated fibres (test of Shavlakadze et al.); format: in vivo; conditions: p<0,1%
Experimental: (§1) J. Pathol. […] 2002 Aug; 444(5), 634-43. […] 2000 Sep; 11(9), 725-8.
(§2) Elles sont testées à 6 semaines.
(§3) Il a également été démontré que la Fluoxetine chlorhydrate (11 mg/kg/jour), réduit le nombre de fibres centronucléées de 20% environ (p<0,1%).

[2] = test system: souris mdx (génotype C57/BL6 mdx5cv); assay: mdx mouse: diaphragm necrosis (test of Raymackers et al.); format: in vivo; conditions: 15 mg/kg/jour oral in food; p<5%
Experimental: as §1, §2, §3

[3] = test system: souche de nématode dépourvue de dystrophine; assay: Muscle degeneration and paralysis test in dystrophin-deficient nematode strain (degenerative myopathy model); format: in vivo, Caenorhabditis elegans; conditions: 7 days of culture at 15°C; for Diminution de la dégénérescence en %: untreated = 0; for Pourcentage d'animaux paralysés à J7: untreated = 100
Experimental: Les composés ont été testés sur une souche de nématode dépourvue de dystrophine (Gieseler et al., Current Biology, 2000, vol. 10, p1092-1097) et (Ségalat, Neuromuscular Disorders, 2002, Suppl: S105-9). Cette souche est utilisée comme modèle de myopathie dégénérative. Dans cette souche, jusqu'à 30% des cellules musculaires servant à la locomotion (muscles longitudinaux) dégénèrent à l'état adulte (7 jours à 15°C), ce qui se traduit par une paralysie progressive des animaux.
Les composés sont administrés par mélange avec la gélose sur laquelle sont cultivés les animaux. Ils pénètrent par diffusion à travers la cuticule des animaux.
L'effet des composés sur la dégénérescence musculaire est évalué par 1) l'observation du phénotype des animaux (paralysie), et 2) par l'examen cytologique de la dégénérescence musculaire au moyen de marqueurs musculaires : rodamine-phalloidine et anticorps anti-myosine. Cet examen permet de compter le nombre de cellules musculaires en dégénérescence ou mortes (Gieseler et al., 2000, supra).

[4] = test system: protéolyse du muscle de C. elegans; assay: Muscle proteolysis model of C. elegans representative of cachexia (protocol of Zdinak et al.); format: in vivo; conditions: relative to control; concentration not given
Text: c) Concernant l'action sur la cachexie, il a également pu être montré sur un modèle de protéolyse du muscle de C. elegans representatif de la cachexie, et en utilisant le protocole décrit par Zdinak et al., dans Transgene-coded chimeric proteins as reporters of intracellular proteolysis: starvation-induced catabolism of a lacZ fusion protein in muscle cells of Caenorhabditis elegans, J Cell Biochem. 1997 Oct 1;67(1):143-53 que la sérotonine et l'imipramine chlorhydrate réduisent fortement cette protéolyse (20% de la protéolyse du témoin dans les 2 cas).

[5] = test system: souris mdx (génotype C57/BL6 mdx5cv); assay: mdx mouse: histology, fibre size dispersion; format: in vivo; conditions: 40mg/jour/kg oral in food, treated from 2 to 6 weeks of age, tested at 6 weeks; versus untreated animals
Text: as §1, §2

[6] = test system: souris mdx (génotype C57/BL6 mdx5cv); conditions: 40mg/jour/kg oral in food, treated from 2 to 6 weeks of age
Text: Les tests effectués chez la souris sont de plusieurs types : histologiques, fonctionnels sur l'animal entier, et fonctionnels sur muscles disséqués. Les tests sont effectués sur la souris mdx (génotype C57/BL6 mdx5cv), modèle murin de myopathie dégénérative. Ces tests sont notamment détaillés dans les publications suivantes auxquelles on pourra se référer : • De Luca A, et al. Am. J. Pathol. 2005 Feb; 166(2), 477-89. • Divet A, et al. Pflugers Arch. 2002 Aug; 444(5), 634-43. Epub 2002 Jul 10. • Rafael JA, et al. Mamm Genome. 2000 Sep; 11(9), 725-8.
Les composés sont administrés oralement aux souris dans leur nourriture. Les souris sont traitées de l'âge de 2 semaines à 6 semaines. Elles sont testées à 6 semaines.

[7] = 0,1 mg/ml (0,2 mM) in culture agar
[8] = 0,1 mg/ml (0,3 mM) in culture agar
[9] = 0,05 mg/ml (0,15 mM) in culture agar
[10] = 4 mg/ml (10 mM) in culture agar

In the case of `CC(CN(C)C)CN1c2ccccc2CCc2ccccc21` (stereo not shown) [Trimipramine maleate, trimipramine], the “nombre de fibres centronucléées” value ([1]; 15 mg/kg/jour oral in food, result in words) is reported as “réduit”, the nécrose du diaphragme [2] is reported as “réduit la nécrose du diaphragme” and the “Diminution de la dégénérescence en %” value [3, 7] is reported as 53%. For the same compound, the “Pourcentage d'animaux paralysés à J7” value [3, 7] was 60%.

`CN(C)CCCN1c2ccccc2CCc2ccccc21` [Imipramine chlorhydrate, imipramine] was tested, and the “Diminution de la dégénérescence en %” value [3, 8] was 37%, the “Pourcentage d'animaux paralysés à J7” value [3, 8] was 65% and the protéolyse [4] was 20 % de la protéolyse du témoin. For the same compound, the “Réduction de la dispersion de taille des fibres (marqueur de dégénérescence)” value [5] was 26%, the “Augmentation de la tension développée par le muscle EDL sur animaux vivants” value ([6]; tested at 6 weeks) was 20% and the “Augmentation du score avec le test d'agrippement” value ([6]; tested at 6 weeks) was 48%. For the same compound, the “Augmentation de la tension maximale développée par le muscle isolé” value ([6]; triton-skinned fibres) was 50%.

In the case of `CN(C)CCC=C1c2ccccc2CCc2ccccc21` [Amytriptyline chlorhydrate, amitriptyline], the “Diminution de la dégénérescence en %” value [3, 8] is reported as 61% and the “Pourcentage d'animaux paralysés à J7” value [3, 8] is reported as 52%.

With `CNCCCN1c2ccccc2CCc2ccccc21` [Desipramine chlorhydrate, désipramine] the “Diminution de la dégénérescence en %” value [3, 8] was 58% and the “Pourcentage d'animaux paralysés à J7” value [3, 8] was 58%.

For `CNCCC(Oc1ccc(C(F)(F)F)cc1)c1ccccc1` (stereo not shown) [Fluoxetine chlorhydrate, fluoxétine], the “réduction du nombre de fibres centronucléées” value ([1]; 11 mg/kg/jour oral in food) was ~20%, the “Diminution de la dégénérescence en %” value [3, 9] was 51% and the “Pourcentage d'animaux paralysés à J7” value [3, 9] was 60%.

For `NCCc1c[nH]c2ccc(O)cc12` [Sérotonine, 5-hydrotryptamine], the “Diminution de la dégénérescence en %” value [3, 10] was 73%, the “Pourcentage d'animaux paralysés à J7” value [3, 10] was 41% and the dégénérescence musculaire ([3]; result in words) was “diminue également la dégénérescence musculaire”. The protéolyse [4] was 20 % de la protéolyse du témoin.
